This passage reports NI results from ChEMBL document CHEMBL1134570, “Synthesis of and a comparative study on the inhibition of muscle and liver glycogen phosphorylases by epimeric pairs of d-gluco- and d-xylopyranosylidene-spiro-(thio)hydantoins and N-(d-glucopyranosyl) amides” (J Med Chem, 2001).

For this assay, the system named is glycogen phosphorylase, muscle form (rabbit). Put plainly: Inhibitory activity against muscle Glycogen Phosphorylase b; no inhibition. The note with it: Muscle tissue.

SMILES strings stand for the structures. Active and inactive are the calls of the source. No cut-off for these calls is given here.

`NC(=O)[C@]1(O)OC[C@@H](O)[C@H](O)C1O` (stereo partly specified): the NI result is “inactive”.
